Results reported in US20240002474A1, “Systems and Methods for Diagnostic Assessment and Treatment of Insulin Resistance and Hyperglycemia” (The Board of Trustees of the Leland Stanford Junior …, priority 2020, published 2024).

What was measured:
HepaRG hepatocytes = assay: Mitochondrial insulin stimulation test (MIST), oxygen consumption rate in HepaRG hepatocytes; assay type: cell-based, human; settings: for insulin-dependent mitochondrial respiration / maximal respiration (FCCP uncoupling): HepaRG, 10-minute pretreatment with peptide (10 μM) before exposure to IR or T2D patient serum, vs cells without peptide
Method: Mitochondrial Insulin Stimulation Test. HepaRG hepatocytes or skeletal muscle cells were plated at 40,000 cells/well in Seahorse XF96 plate (Agilent) the day before the assay. Cells were serum starved by culturing in respective media without serum or growth factor supplements. Individual serum was diluted 1:100 in supplement-free media and cells were incubated with media containing individual serum for 4 hours. Cells were washed three times with PBS and incubated with seahorse assay media (buffer free RPMI with mM glucose, mM sodium pyruvate and mM glutamine) for 1 hour in a CO2 free incubation at 37° C. Seahorse measurements were performed every 5 minutes with mixing. Mitochondrial function was perturbed by administration of insulin (100 nM), oligomycin (1 μM), FCCP (2 μM), and rotenone and antimycin A (1 μM). Data was processed by normalizing basal respiration to zero and the maximal respiration following FCCP administration of the positive control (no serum exposure with insulin stimulation) to 1.
IgG purification and fragmentation. IgG purified from serum was diluted (1:100) in Protein G binding buffer (Thermo) and incubated with Protein G Agarose Beads (Thermo) for 4 hours on an orbital shaker at 4° C. Beads were washed three times with Protein G binding buffer and IgG was eluted by incubated beads in Protein G elution buffer, pH 2.7 for 5 minutes, centrifuged and the supernatant was quenched with Tris-HCl buffer, pH 9.0. Purified IgG was buffer exchanged to using 15 kDa spin column to PBS. Purification was validated by immunoblotting. Fab fragments were generated by papain cleavage using Pierce […] (Thermo Scientific) according to manufacturer's protocol.
Peptide Synthesis. SYN746 (QRFCTGHFGGLYPCHGP; SEQ ID NO: 1) and HIV TAT conjugated FcRn C-terminal tail-dominant negative ([…]; SEQ ID Nos: 2 and 3) were synthesized using Fmoc solid phase peptide synthesis and purified using preparative HPLC using aC18 reverse-phase column and characterized by liquid-chromatography mass spectrometry by University of Minnesota Peptide Synthesis Core.

FcRn = FcRn (Homo sapiens, UniProt P55899); settings: previously published peptide; similar to IgG; cited from earlier work
FcRn, sequence (P55899 24-297 limits assumed): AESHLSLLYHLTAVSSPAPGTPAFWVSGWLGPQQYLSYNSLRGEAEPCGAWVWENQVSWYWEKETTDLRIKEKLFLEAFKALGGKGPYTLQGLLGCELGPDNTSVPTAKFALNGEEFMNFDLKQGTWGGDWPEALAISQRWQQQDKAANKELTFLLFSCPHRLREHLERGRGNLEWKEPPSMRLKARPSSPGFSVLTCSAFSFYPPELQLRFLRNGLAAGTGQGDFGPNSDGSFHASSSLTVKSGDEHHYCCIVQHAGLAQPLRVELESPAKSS
FcRn, sequence (P61769 21-119 partner): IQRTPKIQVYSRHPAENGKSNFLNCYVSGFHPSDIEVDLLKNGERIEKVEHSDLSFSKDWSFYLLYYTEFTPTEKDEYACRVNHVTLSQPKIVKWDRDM

Sequence: YGRKKRRQRRRGAPWISLRGDDTGVLLPTP [dominant negative]
- insulin-dependent mitochondrial respiration (HepaRG hepatocytes): significant rescue
- maximal respiration (FCCP uncoupling) (HepaRG hepatocytes): significant rescue

Sequence: QRFCTGHFGGLYPCHGP (listed as Homo sapiens) [SYN746]
- mitochondrial function or insulin stimulation in control cells (HepaRG hepatocytes; HepaRG control cells, 10-minute pretreatment): did not affect
- insulin-dependent mitochondrial respiration (HepaRG hepatocytes): dramatic rescue
- maximal respiration (FCCP uncoupling) (HepaRG hepatocytes): dramatic rescue
- binding to FcRn (FcRn): pH-sensitive binding
